ChEMBL document CHEMBL4130583, “Artocarmins G-M, Prenylated 4-Chromenones from the Stems of Artocarpus rigida and Their Tyrosinase Inhibitory Activities” (J Nat Prod, 2017)

Columns and labels:
Tyrosinase = target: T1, Tyrosinase (Homo sapiens, UniProt P14679); test: Inhibition of tyrosinase (unknown origin) using L-dihydroxyphenylalanine as substrate preincubated for 30 mins followed by substrate addition measured for 7 mins by spectrophotometric analysis
T1 sequence (P14679 whole entry): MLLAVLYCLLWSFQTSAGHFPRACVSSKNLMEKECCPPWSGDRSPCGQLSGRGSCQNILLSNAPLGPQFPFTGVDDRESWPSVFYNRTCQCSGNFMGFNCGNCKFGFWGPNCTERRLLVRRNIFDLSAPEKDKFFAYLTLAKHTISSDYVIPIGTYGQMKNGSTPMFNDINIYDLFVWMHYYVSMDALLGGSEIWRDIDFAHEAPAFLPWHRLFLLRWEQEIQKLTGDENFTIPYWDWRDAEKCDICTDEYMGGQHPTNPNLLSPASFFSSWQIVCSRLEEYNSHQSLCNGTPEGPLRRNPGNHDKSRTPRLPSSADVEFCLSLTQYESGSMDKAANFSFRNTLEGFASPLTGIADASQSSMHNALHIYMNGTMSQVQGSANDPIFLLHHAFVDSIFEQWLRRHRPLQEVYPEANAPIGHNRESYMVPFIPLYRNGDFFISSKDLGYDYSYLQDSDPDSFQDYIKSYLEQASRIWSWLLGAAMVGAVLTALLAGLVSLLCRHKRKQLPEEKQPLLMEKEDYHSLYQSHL

[1] = target: T2, Tyrosinase (Homo sapiens) (UniProt P14679); test: Potency index, ratio of kojic acid IC50 to compound IC50 for tyrosinase (unknown origin)
T2 sequence (whole entry): T1 sequence (P14679 whole entry)

| IC50 (Tyrosinase) | Ratio IC50 [1] | Structure (SMILES) |
| --- | --- | --- |
| 45.3 µM |  | COc1c(-c2oc3cc(O)cc(O)c3c(=O)c2CC=C(C)C)cc(O)c(O)c1CC=C(C)C |
| 0.023 µM | 1900 | O=c1cc(-c2ccc(O)cc2O)oc2cc(O)cc(O)c12 [NORARTOCARPETIN] |
